Laboratory results taken from patent US8609836B2, “4-aryl-2-anilino-pyrimidines” (Janssen Pharmaceutica NV, priority 2008, dated 2013).

Assays:
AuroraB (h) = AuroraB (h) (Homo sapiens, UniProt Q96GD4); assay: Aurora-B human kinase inhibition, SPA; format: biochemical; settings: read-out: AuroraB pIC50 (converted)
In short: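 SPA with biotinylated peptide (3 μM) in 60 mM Hepes pH 7.5, Mg/Mn 3 mM each, 0.5 μM ATP plus [γ-33P]ATP, AuroraB at 0.5 μg/ml. The reaction runs 60 min at room temperature and is stopped with EDTA and streptavidin PVT beads. 33P-substrate is read by scintillation imaging.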

PLK2 (h) = PLK2 (h) (Homo sapiens, UniProt Q9NYY3); assay: PLK2 human kinase inhibition, SPA; format: biochemical; settings: read-out: PLK2 pIC50 (converted)
In short: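 SPA read on Leadseeker: PLK2 (30 μg/ml) with 2 μM biotinylated peptide, 0.1 μM ATP plus 2 nM [γ-33P]ATP in 50 mM Hepes pH 8.0, 2 mM MnCl2, 1 mM DTT. Reaction ran 20 min at room temperature, then EDTA stop and streptavidin PVT beads.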

A2780 = assay: Cellular proliferation assay (Alamar blue), A2780; format: cell-based; settings: Homo sapiens, 10% FCS, 72 hours with compound, Alamar blue 24 h, read-out: A2780 (cellular proliferation assay, Table 4) (converted)
In short: (§1)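 Proliferation in 10% FCS over a 72 h compound treatment, read as viable cell number by Alamar blue fluorescence and calculated against untreated control cells. Dye time varied by line: 6 h U87-MG, 4 h HCT-116, 24 h A2780 and MDA-MB-231.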

PLK1 T210D (h) = PLK1 T210D (h) (Homo sapiens, UniProt P53350, T210D); assay: PLK1 human kinase inhibition, SPA; format: biochemical; settings: read-out: PLK1 pIC50 (converted)
In short: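 Radiometric SPA with PLK1 T210D (0.125 ng/ml) in 50 mM Hepes pH 8.0, 2 mM MnCl2, 1 mM DTT, 2 μM biotinylated peptide, 0.1 μM ATP plus 2 nM [γ-33P]ATP. 40 min at room temperature, EDTA stop. Phosphorylated substrate captured on streptavidin PVT beads, scintillation imaged.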

HCT-116 = assay: Cellular proliferation assay (Alamar blue), HCT-116; format: cell-based; settings: Homo sapiens, 10% FCS, 72 hours with compound, Alamar blue 4 h
In short: as §1

CDK1/CyclinB (h) = CDK1/CyclinB (h) (Homo sapiens, UniProt P06493); assay: CDK1/CyclinB human kinase inhibition, Invitrogen's FRET assay (Z'lyte); format: biochemical; settings: read-out: CDK1 pIC50 (converted)
In short: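 Z'lyte FRET assay: human CDK1/CyclinB (0.2 μg/ml) with 2 μM Ser/Thr peptide 12 and 10 μM ATP in 50 mM Hepes pH 7.5, MgCl2, EGTA, Brij-35, 60 min at room temperature. Protease development 60 min, then emission ratio 460/538 nm read with excitation at 390 nm.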

H1299 = assay: Cellular proliferation assay (Alamar blue), H1299; format: cell-based; settings: Homo sapiens, NCI-H1299; 10% FCS; 72 hours with compound; Alamar blue 4 h
In short: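 This proliferation assay on NCI-H1299 cells used an initial 24-hour compound-free incubation after seeding, followed by 72 hours of compound treatment with 10% FCS serum at 37° C. and 5% (v/v) CO2. Viable cells were quantified by a 4 h Alamar blue incubation and fluorescent plate reading at 544 nm/590 nm, and effects were expressed relative to control cells.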

CDK4/CyclinD1 (h) = CDK4/CyclinD1 (h) (Homo sapiens, UniProt P11802); assay: CDK4/CyclinD1 human kinase inhibition, SPA with GST-pRb substrate; format: biochemical; settings: read-out: CDK4 pIC50 (converted)
In short: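 Human CDK4/CyclinD1 (2.5 μg/ml) was incubated with 40 μg/ml GST-pRb and 2 nM [γ-33P]ATP in 50 mM Hepes pH 7.5, 8 mM NaF, 20 mM MgCl2, 1 mM DTT for 60 min at room temperature. EDTA stop with glutathione SPA beads; phosphorylation read by scintillation counting.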

U87-MG = assay: Cellular proliferation assay (Alamar blue), U87-MG; format: cell-based; settings: Homo sapiens, U-87 MG; 10% FCS; 72 hours with compound; Alamar blue 6 h; read-out: U87-MG (cellular proliferation assay, Table 4) (converted)
In short: as §1

Chain of CDK4/CyclinD1 (h) (P11802 whole entry): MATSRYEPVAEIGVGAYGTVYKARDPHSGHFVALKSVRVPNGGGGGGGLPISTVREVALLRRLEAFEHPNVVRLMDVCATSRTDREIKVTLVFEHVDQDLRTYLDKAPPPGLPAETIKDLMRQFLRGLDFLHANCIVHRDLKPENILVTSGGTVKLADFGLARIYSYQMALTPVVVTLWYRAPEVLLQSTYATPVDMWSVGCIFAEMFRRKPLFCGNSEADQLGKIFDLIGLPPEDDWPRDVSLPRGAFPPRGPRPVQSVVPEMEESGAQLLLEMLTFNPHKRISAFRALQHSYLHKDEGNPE
Chain of CDK4/CyclinD1 (h) (P24385 whole entry partner): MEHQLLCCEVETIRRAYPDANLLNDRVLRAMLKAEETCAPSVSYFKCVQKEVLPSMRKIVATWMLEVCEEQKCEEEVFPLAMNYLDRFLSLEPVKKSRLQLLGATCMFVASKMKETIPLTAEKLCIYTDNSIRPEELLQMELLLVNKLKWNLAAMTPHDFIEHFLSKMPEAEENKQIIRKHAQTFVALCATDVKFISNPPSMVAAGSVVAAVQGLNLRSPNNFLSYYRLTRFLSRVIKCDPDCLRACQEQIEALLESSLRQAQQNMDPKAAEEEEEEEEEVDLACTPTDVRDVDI
Chain of PLK2 (h) (Q9NYY3 whole entry): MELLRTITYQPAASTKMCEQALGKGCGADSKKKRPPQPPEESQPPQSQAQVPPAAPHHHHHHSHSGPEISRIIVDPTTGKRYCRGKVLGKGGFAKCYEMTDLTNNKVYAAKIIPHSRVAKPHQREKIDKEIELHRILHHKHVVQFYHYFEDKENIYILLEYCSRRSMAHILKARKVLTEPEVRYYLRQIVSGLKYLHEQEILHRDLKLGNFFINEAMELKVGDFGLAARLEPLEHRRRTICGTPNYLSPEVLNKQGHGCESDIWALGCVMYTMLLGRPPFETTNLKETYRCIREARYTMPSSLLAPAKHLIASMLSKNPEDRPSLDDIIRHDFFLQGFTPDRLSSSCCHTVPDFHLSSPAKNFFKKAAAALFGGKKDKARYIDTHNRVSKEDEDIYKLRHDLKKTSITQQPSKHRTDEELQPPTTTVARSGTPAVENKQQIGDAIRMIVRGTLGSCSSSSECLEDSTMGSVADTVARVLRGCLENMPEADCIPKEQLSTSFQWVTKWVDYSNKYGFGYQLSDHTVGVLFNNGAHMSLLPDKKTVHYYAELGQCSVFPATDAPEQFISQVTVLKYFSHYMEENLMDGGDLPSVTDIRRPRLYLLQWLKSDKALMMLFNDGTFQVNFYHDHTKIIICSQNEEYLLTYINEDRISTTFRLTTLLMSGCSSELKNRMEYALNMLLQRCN
Chain of PLK1 T210D (h) (P53350 whole entry T210D): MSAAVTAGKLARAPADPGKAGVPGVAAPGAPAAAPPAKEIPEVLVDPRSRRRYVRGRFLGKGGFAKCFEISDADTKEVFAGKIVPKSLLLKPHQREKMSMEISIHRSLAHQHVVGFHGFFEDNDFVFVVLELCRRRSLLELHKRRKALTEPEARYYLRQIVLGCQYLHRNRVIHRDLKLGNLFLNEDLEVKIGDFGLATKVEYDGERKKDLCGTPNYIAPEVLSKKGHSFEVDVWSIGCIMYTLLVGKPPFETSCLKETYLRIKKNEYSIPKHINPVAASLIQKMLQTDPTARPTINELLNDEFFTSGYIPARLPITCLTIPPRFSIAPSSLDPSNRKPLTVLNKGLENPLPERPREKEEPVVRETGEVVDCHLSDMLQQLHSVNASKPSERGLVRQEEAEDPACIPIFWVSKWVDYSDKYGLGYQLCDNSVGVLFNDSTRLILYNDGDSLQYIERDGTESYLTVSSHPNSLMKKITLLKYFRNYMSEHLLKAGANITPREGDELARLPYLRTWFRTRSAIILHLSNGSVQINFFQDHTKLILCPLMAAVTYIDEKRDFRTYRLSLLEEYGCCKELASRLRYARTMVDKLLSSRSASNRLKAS
Chain of AuroraB (h) (Q96GD4 whole entry): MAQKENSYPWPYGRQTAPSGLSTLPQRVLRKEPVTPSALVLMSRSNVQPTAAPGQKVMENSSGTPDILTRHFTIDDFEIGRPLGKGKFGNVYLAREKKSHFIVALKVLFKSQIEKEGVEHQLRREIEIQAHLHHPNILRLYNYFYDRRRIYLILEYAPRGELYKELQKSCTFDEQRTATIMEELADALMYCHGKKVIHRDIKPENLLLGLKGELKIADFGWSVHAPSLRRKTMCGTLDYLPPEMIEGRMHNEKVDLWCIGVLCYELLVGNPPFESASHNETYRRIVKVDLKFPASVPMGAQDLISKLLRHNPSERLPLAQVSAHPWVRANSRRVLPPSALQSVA
Chain of CDK1/CyclinB (h) (P06493 whole entry): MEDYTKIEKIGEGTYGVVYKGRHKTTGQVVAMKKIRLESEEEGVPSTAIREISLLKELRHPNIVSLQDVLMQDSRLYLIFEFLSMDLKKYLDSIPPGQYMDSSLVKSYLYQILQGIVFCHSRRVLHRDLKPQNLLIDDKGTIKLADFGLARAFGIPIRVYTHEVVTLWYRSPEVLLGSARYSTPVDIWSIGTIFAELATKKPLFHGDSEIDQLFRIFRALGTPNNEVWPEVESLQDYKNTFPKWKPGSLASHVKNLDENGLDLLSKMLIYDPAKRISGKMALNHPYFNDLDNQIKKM
Chain of CDK1/CyclinB (h) (P14635 whole entry partner): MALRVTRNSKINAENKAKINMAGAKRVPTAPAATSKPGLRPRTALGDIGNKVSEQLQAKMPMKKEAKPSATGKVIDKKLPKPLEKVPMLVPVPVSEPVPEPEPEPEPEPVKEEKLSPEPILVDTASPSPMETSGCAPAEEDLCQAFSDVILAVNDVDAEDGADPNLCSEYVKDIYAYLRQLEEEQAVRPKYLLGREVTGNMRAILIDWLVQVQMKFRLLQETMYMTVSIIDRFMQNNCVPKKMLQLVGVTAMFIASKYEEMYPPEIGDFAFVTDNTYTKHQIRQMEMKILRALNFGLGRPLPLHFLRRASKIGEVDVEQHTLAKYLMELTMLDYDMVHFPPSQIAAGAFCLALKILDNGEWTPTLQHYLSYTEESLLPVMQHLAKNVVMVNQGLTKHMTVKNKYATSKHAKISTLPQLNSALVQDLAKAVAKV

Compound | IC50 (AuroraB (h)) | IC50 (PLK2 (h)) | IC50 (A2780) | IC50 (PLK1 T210D (h)) | IC50 (HCT-116) | IC50 (CDK1/CyclinB (h)) | IC50 (H1299) | IC50 (CDK4/CyclinD1 (h)) | IC50 (U87-MG)
O=C1CN2CCN(CC2)Cc2cc(ccc2N2CCOCC2)Nc2nccc(n2)-c2cccc(c2)OCCCN1 [Compound 103] | > 10 µM | > 10 µM | > 10 µM | > 10 µM | > 10 µM | > 10 µM | > 10 µM | > 10 µM | > 10 µM
CN1CCCNC(=O)[C@H](CO)NCc2cccc(c2)Nc2nccc(n2)-c2ccc(cc2)C1 [Compound 113] | > 10 µM | > 10 µM | > 10 µM | > 10 µM | > 10 µM | > 10 µM | > 10 µM | > 10 µM | > 10 µM
O=C1NCCNCc2ccc(cc2)-c2ccnc(n2)Nc2ccc(N3CCOCC3)c(c2)CN[C@H]1CO [Compound 115] | > 10 µM | > 10 µM | > 10 µM | > 10 µM | > 10 µM | > 10 µM | > 10 µM | > 10 µM | > 10 µM
COc1ccc2cc1CNCCNC(=O)CN1CCN(CC1)Cc1cc(ccc1N1CCOCC1)Nc1nccc-2n1 [Compound 126] | 8.71 µM | > 10 µM | 5.37 µM | > 10 µM | 8.71 µM | > 10 µM | > 10 µM | > 10 µM | > 10 µM
COc1ccc2cc1CN(C)CCCNC(=O)CN1CCN(CC1)Cc1cc(cc(NC(C)C)c1)Nc1nccc-2n1 [Compound 130] | 6.31 µM | > 10 µM | > 10 µM | > 10 µM | > 10 µM | 7.76 µM | > 10 µM | > 10 µM | > 10 µM
CN1CCNC(=O)CN2CCN(CC2)Cc2cc(cc(N3CCOCC3)c2)Nc2nccc(n2)-c2ccc(cc2)C1 [Compound 135] | > 10 µM | > 10 µM | > 10 µM | > 10 µM | > 10 µM | > 10 µM | > 10 µM | > 10 µM | 9.77 µM
COc1ccc2cc1CN(C)CCCNC(=O)CN1CCN(CC1)Cc1cc(cc(N3CCOCC3)c1)Nc1nccc-2n1 [Compound 141] | > 10 µM | > 10 µM | 8.91 µM | > 10 µM | 2.29 µM | > 10 µM | > 10 µM | > 10 µM | 5.89 µM
COc1ccc2cc1CN(C)CCNC(=O)CN1CCN(CC1)Cc1cc(cc(NC(C)C)c1)Nc1nccc-2n1 [Compound 142] | > 10 µM | > 10 µM | > 10 µM | > 10 µM | > 10 µM | 8.51 µM | > 10 µM | > 10 µM | 5.62 µM
COc1ccc2cc1CN(C)CCCNC(=O)CN1CCN(CC1)Cc1cc(Br)cc(c1)Nc1nccc-2n1 [Compound 144] | 7.94 µM | > 10 µM | > 10 µM | > 10 µM | > 10 µM | > 10 µM | > 10 µM | > 10 µM | 9.33 µM
COc1ccc2cc1CN(C)CCNC(=O)CN1CCN(CC1)Cc1cc(cc(N3CCOCC3)c1)Nc1nccc-2n1 [Compound 145] | > 10 µM | > 10 µM | > 10 µM | > 10 µM | > 10 µM | > 10 µM | > 10 µM | > 10 µM | > 10 µM
COc1ccc2cc1CN(C)CCCNC(=O)CN1CCN(CC1)Cc1cccc(c1)Nc1nccc-2n1 [Compound 146] | > 10 µM | > 10 µM | > 10 µM | > 10 µM | > 10 µM | > 10 µM | > 10 µM | > 10 µM | > 10 µM
COc1ccc2cc1CN(C)CCNC(=O)CN1CCN(CC1)Cc1cccc(c1)Nc1nccc-2n1 [Compound 147] | > 10 µM | > 10 µM | > 10 µM | > 10 µM | > 10 µM | > 10 µM | > 10 µM | > 10 µM | > 10 µM
